Data: PubChem BioAssay (NCI)
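Method: 48-hour compound exposure of cells in 96-well plates, five concentrations, linear interpolation of endpoints. At the GI50, growth is halved. TGI is the concentration that stops growth completely.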

Key:
Assay in all cases: NCI anticancer screen, dose series, 48 h
786-0 renal = test system: 786-0 renal
A498 renal = test system: A498 renal
A549 NSCLC = test system: A549 NSCLC
ACHN renal = test system: ACHN renal
BT-549 breast = test system: BT-549 breast
CAKI-1 renal = test system: CAKI-1 renal
CCRF-CEM leukemia = test system: CCRF-CEM leukemia
COLO 205 colon = test system: COLO 205 colon
DU-145 prostate = test system: DU-145 prostate
EKVX NSCLC = test system: EKVX NSCLC
HCC-2998 colon = test system: HCC-2998 colon
HCT-116 colon = test system: HCT-116 colon
HCT-15 colon = test system: HCT-15 colon
HL-60(TB) leukemia = test system: HL-60(TB) leukemia
HOP-62 NSCLC = test system: HOP-62 NSCLC
HOP-92 NSCLC = test system: HOP-92 NSCLC
HS 578T breast = test system: HS 578T breast
HT29 colon = test system: HT29 colon
IGROV1 ovarian = test system: IGROV1 ovarian
K-562 leukemia = test system: K-562 leukemia
KM12 colon = test system: KM12 colon
LOX IMVI melanoma = test system: LOX IMVI melanoma
M14 melanoma = test system: M14 melanoma
MALME-3M melanoma = test system: MALME-3M melanoma
MCF7 breast = test system: MCF7 breast
MDA-MB-231 breast = test system: MDA-MB-231 breast
MDA-MB-435 = test system: MDA-MB-435
MOLT-4 leukemia = test system: MOLT-4 leukemia
NCI-H226 lung = test system: NCI-H226 lung
NCI-H23 lung = test system: NCI-H23 lung
NCI-H460 lung = test system: NCI-H460 lung
NCI-H522 lung = test system: NCI-H522 lung
NCI/ADR-RES ovarian = test system: NCI/ADR-RES ovarian
OVCAR-3 ovarian = test system: OVCAR-3 ovarian
OVCAR-4 ovarian = test system: OVCAR-4 ovarian
OVCAR-5 ovarian = test system: OVCAR-5 ovarian
OVCAR-8 ovarian = test system: OVCAR-8 ovarian
PC-3 prostate = test system: PC-3 prostate
RPMI-8226 leukemia = test system: RPMI-8226 leukemia
RXF 393 renal = test system: RXF 393 renal
SF-268 CNS = test system: SF-268 CNS
SF-295 CNS = test system: SF-295 CNS
SF-539 CNS = test system: SF-539 CNS
SK-MEL-2 melanoma = test system: SK-MEL-2 melanoma
SK-MEL-28 melanoma = test system: SK-MEL-28 melanoma
SK-MEL-5 melanoma = test system: SK-MEL-5 melanoma
SK-OV-3 ovarian = test system: SK-OV-3 ovarian
SN12C renal = test system: SN12C renal
SNB-75 CNS = test system: SNB-75 CNS
SR leukemia = test system: SR leukemia
SW-620 colon = test system: SW-620 colon
T-47D breast = test system: T-47D breast
U251 CNS = test system: U251 CNS
UACC-257 melanoma = test system: UACC-257 melanoma
UACC-62 melanoma = test system: UACC-62 melanoma
UO-31 renal = test system: UO-31 renal

## Cc1cc2ncnn2cc1Nc1ncc2c(n1)n(C1CCOCC1)c(=O)n2C
786-0 renal
  GI50: 8.29 µM
  TGI: 94.8 µM
A498 renal
  GI50: 0.319 µM
  TGI: 2.22 µM
A549 NSCLC
  GI50: 7.22 µM
  TGI: > 100 µM
ACHN renal
  GI50: 9.97 µM
  TGI: > 100 µM
BT-549 breast
  GI50: 2.83 µM
  TGI: 32.2 µM
CAKI-1 renal
  GI50: 2.88 µM
  TGI: 52.2 µM
CCRF-CEM leukemia
  GI50: 4.04 µM
  TGI: > 100 µM
COLO 205 colon
  GI50: 4.93 µM
  TGI: > 100 µM
DU-145 prostate
  GI50: 6.92 µM
  TGI: > 100 µM
EKVX NSCLC
  GI50: 10.8 µM
  TGI: > 100 µM
HCC-2998 colon
  GI50: 6.56 µM
  TGI: > 100 µM
HCT-116 colon
  GI50: 10.7 µM
  TGI: > 100 µM
HCT-15 colon
  GI50: 8.23 µM
  TGI: > 100 µM
HL-60(TB) leukemia
  GI50: 23.3 µM
  TGI: > 100 µM
HOP-62 NSCLC
  GI50: 3.95 µM
  TGI: 78.2 µM
HOP-92 NSCLC
  GI50: 2.01 µM
  TGI: 18.8 µM
HS 578T breast
  GI50: 2.84 µM
  TGI: 23.4 µM
HT29 colon
  GI50: 6.64 µM
  TGI: > 100 µM
IGROV1 ovarian
  GI50: 3.19 µM
  TGI: 25.5 µM
K-562 leukemia
  GI50: 16 µM
  TGI: > 100 µM
KM12 colon
  GI50: 14.5 µM
  TGI: > 100 µM
LOX IMVI melanoma
  GI50: 5.92 µM
  TGI: > 100 µM
M14 melanoma
  GI50: 11.2 µM
  TGI: > 100 µM
MALME-3M melanoma
  GI50: 2.49 µM
  TGI: 29.3 µM
MCF7 breast
  GI50: 3.21 µM
  TGI: > 100 µM
MDA-MB-231 breast
  GI50: 5.3 µM
  TGI: > 100 µM
MDA-MB-435
  GI50: 8.01 µM
  TGI: > 100 µM
MOLT-4 leukemia
  GI50: 6.09 µM
  TGI: 52 µM
NCI-H226 lung
  GI50: 7.32 µM
  TGI: > 100 µM
NCI-H23 lung
  GI50: 14.3 µM
  TGI: > 100 µM
NCI-H460 lung
  GI50: 4.74 µM
  TGI: > 100 µM
NCI-H522 lung
  GI50: 3.74 µM
  TGI: > 100 µM
NCI/ADR-RES ovarian
  GI50: 19.9 µM
  TGI: > 100 µM
OVCAR-3 ovarian
  GI50: 6.22 µM
  TGI: 72 µM
OVCAR-4 ovarian
  GI50: 3.94 µM
  TGI: 42.9 µM
OVCAR-5 ovarian
  GI50: 5.81 µM
  TGI: > 100 µM
OVCAR-8 ovarian
  GI50: 11.5 µM
  TGI: > 100 µM
PC-3 prostate
  GI50: 2.73 µM
  TGI: > 100 µM
RPMI-8226 leukemia
  GI50: 4.41 µM
  TGI: > 100 µM
RXF 393 renal
  GI50: 3.73 µM
  TGI: 29.9 µM
SF-268 CNS
  GI50: 6.18 µM
  TGI: > 100 µM
SF-295 CNS
  GI50: 4.98 µM
  TGI: 48 µM
SF-539 CNS
  GI50: 9.63 µM
  TGI: 51.5 µM
SK-MEL-2 melanoma
  GI50: 12.2 µM
  TGI: 71.5 µM
SK-MEL-28 melanoma
  GI50: 5.71 µM
  TGI: 64.1 µM
SK-MEL-5 melanoma
  GI50: 14 µM
  TGI: 29.2 µM
SK-OV-3 ovarian
  GI50: 2.15 µM
  TGI: 15.2 µM
SN12C renal
  GI50: 6.21 µM
  TGI: > 100 µM
SNB-75 CNS
  GI50: 1.12 µM
  TGI: 6.96 µM
SR leukemia
  GI50: 3.42 µM
  TGI: 52.9 µM
SW-620 colon
  GI50: 18.1 µM
  TGI: > 100 µM
T-47D breast
  GI50: 1.41 µM
  TGI: 6.42 µM
U251 CNS
  GI50: 14.1 µM
  TGI: > 100 µM
UACC-257 melanoma
  GI50: 7.52 µM
  TGI: 72.5 µM
UACC-62 melanoma
  GI50: 3.5 µM
  TGI: 29.3 µM
UO-31 renal
  GI50: 2.83 µM
  TGI: > 100 µM
